Results reported in patent publication US20120094894A1, “ANTIDIABETIC MEDICATIONS COMPRISING A DPP-4 INHIBITOR (LINAGLIPTIN) OPTIONALLY IN COMBINATION WITH OTHER ANTIDIABETICS” (BOEHRINGER INGELHEIM INTERNATIONAL GMBH, priority 2009, published 2012).

How the values were obtained:
DIO mice [1] = assay: Blood glucose following OGTT (AUC) in diet-induced obesity model; type: in vivo; conditions: 4 weeks, p<0.01
DIO mice [2] = assay: Liver fat content by magnetic resonance spectroscopy (MRS) in diet-induced obesity model; type: in vivo
From the text: Hepatic steatosis is a hallmark of patients with type 2 diabetes and underlies the pathogenesis of non-alcoholic fatty liver disease (NAFLD). Linagliptin is a selective and non-renal excreted inhibitor of dipeptidyl peptidase-4 (DPP-4). […]. Liver lipid content is detected by magnetic resonance spectroscopy (MRS) in vivo and ex vivo by analysis of liver triglycerides. […]. […] A significant reduction of liver fat content (MRS) is visible as early as 2 weeks on treatment. The correlation between liver lipid content as measured by MRS and hepatic triglyceride levels as measured ex vivo is r2=0.565 (p<0.0001).

ob/ob mice [3] = assay: Blood glucose AUC in ob/ob mice after 14 d linagliptin; conditions: 3 mg/kg/d
ob/ob mice [4] = assay: Blinded histological scoring of liver (fat content, markers of inflammation) in ob/ob mice; conditions: 3 mg/kg/d, 14 d, n=9, p<0.01 vs. control 3±0.18
[5] = metformin on its own, in the diabetic; cited from earlier work

Row | SMILES | Blood glucose levels following an OGTT (AUC) suppressed (DIO mice [1]; 3 mg/kg/d) | Blood glucose levels following an OGTT (AUC) suppressed (DIO mice [1]; 30 mg/kg/d) | Time on treatment at which significant reduction of liver fat content (MRS) is visible (DIO mice [2]; DIO mice) | Liver fat content (MRS detection) (DIO mice [2]; DIO mice fed 2 or 3 months, 30 mg/kg/d, and 3 mg/kg/d in 3 month fed mice, 4 weeks) | Blood glucose AUC reduction (ob/ob mice [3]) | Histological score (hepatic steatosis and inflammation) (ob/ob mice [4]) | Average improvement in the HbA1c value [5]
1 | CC#CCn1c(N2CCC[C@@H](N)C2)nc2c1c(=O)n(Cc1nc(C)c3ccccc3n1)c(=O)n2C [linagliptin, 1-[(4-methyl-quinazolin-2-yl)methyl]-3-methyl-7-(2-butyn-1-yl)-8-(3-(R)-amino-piperidin-1-yl)-xanthine] | 16%-20% | 20%-26% | 2 weeks | reduced significantly | 25% | 2.2±0.13 | 
2 | CN(C)C(=N)N=C(N)N [metformin] |  |  |  |  |  |  | 1.0-1.5%
